The target in test [1] is T1, Indoleamine 2,3-dioxygenase 1 (Homo sapiens, UniProt P14902). Briefly: Inhibition of IDO1 (unknown origin) assessed as reduction in kynurenine production using L-tryptophan as substrate at 50 uM incubated for 1 hr by absorbance based microplate reader analysis relative to control.
Target sequence in this assay (P14902 whole entry, looked up): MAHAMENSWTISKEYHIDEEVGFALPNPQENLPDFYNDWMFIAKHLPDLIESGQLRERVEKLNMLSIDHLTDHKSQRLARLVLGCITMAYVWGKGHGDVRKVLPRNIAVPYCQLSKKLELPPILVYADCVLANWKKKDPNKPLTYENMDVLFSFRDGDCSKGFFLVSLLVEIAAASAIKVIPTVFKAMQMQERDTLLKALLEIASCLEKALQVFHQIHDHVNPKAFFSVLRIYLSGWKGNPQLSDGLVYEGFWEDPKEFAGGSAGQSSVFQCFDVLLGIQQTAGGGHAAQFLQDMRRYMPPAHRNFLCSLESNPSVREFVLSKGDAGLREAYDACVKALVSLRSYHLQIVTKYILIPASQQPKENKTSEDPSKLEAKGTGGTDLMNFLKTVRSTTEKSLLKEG
Test [2] has as its target T2, Tryptophan 2,3-dioxygenase (Homo sapiens, UniProt P48775). Nature of the test: Inhibition of TDO (unknown origin) assessed as reduction in N-formylkynurenine formation using L-tryptophan as substrate at 50 uM incubated for 75 mins by UV absorbance based analysis relative to control.
Target sequence in this assay (P48775 whole entry, looked up): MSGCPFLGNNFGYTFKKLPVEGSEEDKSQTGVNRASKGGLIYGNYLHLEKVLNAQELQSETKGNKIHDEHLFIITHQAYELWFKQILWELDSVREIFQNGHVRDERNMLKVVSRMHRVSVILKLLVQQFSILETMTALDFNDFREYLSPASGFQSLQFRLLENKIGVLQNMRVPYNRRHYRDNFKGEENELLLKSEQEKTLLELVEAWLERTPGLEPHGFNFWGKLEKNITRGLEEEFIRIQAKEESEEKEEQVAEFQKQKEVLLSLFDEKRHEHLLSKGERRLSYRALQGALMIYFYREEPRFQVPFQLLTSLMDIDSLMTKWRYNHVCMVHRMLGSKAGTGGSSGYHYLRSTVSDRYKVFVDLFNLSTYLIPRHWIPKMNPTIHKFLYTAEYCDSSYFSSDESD
Test [3] has as its target T2, Tryptophan 2,3-dioxygenase. Nature of the test: Inhibition of TDO (unknown origin) assessed as reduction in N-formylkynurenine formation using L-tryptophan as substrate incubated for 75 mins by UV absorbance based analysis.
Target sequence in this assay (P48775 whole entry): as the sequence (P48775 whole entry, looked up) above
The target of test [4] is T1, Indoleamine 2,3-dioxygenase 1. Briefly: Inhibition of IDO1 (unknown origin) assessed as reduction in kynurenine production using L-tryptophan as substrate incubated for 1 hr by absorbance based microplate reader analysis.
Target sequence in this assay (P14902 whole entry): as the sequence (P14902 whole entry, looked up) above

The text below walks through data of ChEMBL document CHEMBL5137086, “Discovery of 1-(Hetero)aryl-β-carboline Derivatives as IDO1/TDO Dual Inhibitors with Antidepressant Activity” (J Med Chem, 2022).

Broadly, the inhibition is the share of the control response that was lost under treatment. Take `Fc1ccc(-c2nccc3c2[nH]c2ccccc23)cc1`: the figures for the inhibition in test [1] and in test [2] were 27% and 3%, respectively.
As a reminder, the IC50 is the concentration needed to halve the response being measured. With `c1cncc(-c2nccc3c2[nH]c2ccccc23)c1`, the inhibition in test [1] turned out to be 26%; in test [2], 89%. The IC50 in test [3] turned out to be 2.14 µM.
Take `c1ccc2c(c1)[nH]c1c(-c3ncc[nH]3)nccc12`: the inhibition in test [1] was determined as 26%; in test [2] it was 4%.
Consider `Cc1nccc2c1[nH]c1ccccc12` [HARMAN], for which the figures for the inhibition in test [1] and in test [2] were 34% and 85%, respectively. In test [3], the IC50 is 6.31 µM.
Turning to `c1ccc2c(c1)[nH]c1c(-c3nccs3)nccc12`, the values for the inhibition in test [1] and in test [2] were 5% and 2%, respectively.
Take `N#Cc1cccc(-c2nccc3c2[nH]c2ccccc23)c1`: the inhibition in test [1] is 66%; in test [2] it was 78%. The results for the IC50 in test [4] and in test [3] were over 50 µM and 15.3 µM, respectively.
Turning to `c1coc(-c2nccc3c2[nH]c2ccccc23)c1`, the inhibition in test [1] was determined as 33%; in test [2] it was 37%.
`c1ccc2c(c1)[nH]c1c(-c3ccoc3)nccc12`: the inhibition in test [1] stood at 5%; in test [2], 92%. Also, the IC50 in test [3] was found to be 1.14 µM.
On to `c1ccc2c(c1)[nH]c1c(-c3cnn[nH]3)nccc12`, for which the figures for the inhibition in test [1] and in test [2] were 91% and 77%, respectively. Also, the values for the IC50 in test [4] and in test [3] were 13.9 µM and 19.5 µM, respectively.
Take `c1ccc2c(c1)[nH]c1c(-c3ccsc3)nccc12`: the inhibition in test [1] is 34%; in test [2], 94%. The IC50 in test [3] stood at 0.81 µM.
On to `FC(F)(F)c1cccc(-c2nccc3c2[nH]c2ccccc23)c1`, for which the inhibition in test [1] worked out at 9%; in test [2], 88%. Further, the IC50 in test [3] stood at 5.39 µM.
As to `O=[N+]([O-])c1ccc(-c2nccc3c2[nH]c2ccccc23)cc1`, the inhibition worked out at 94% in test [1] and 3% in test [2]. For the same compound, in test [4], the IC50 amounted to 8.44 µM.
Regarding `O=[N+]([O-])c1cccc(-c2nccc3c2[nH]c2ccccc23)c1`, the inhibition in test [1] came to 96%; in test [2] it was 6%. In test [4], the IC50 was found to be 8.28 µM.
With `Brc1ccc(-c2nccc3c2[nH]c2ccccc23)cc1`, the inhibition in test [1] worked out at 51%; in test [2], 5%. The half-maximal inhibitory concentration (IC50) in test [4] is over 50 µM.
On to `c1csc(-c2nccc3c2[nH]c2ccccc23)c1`, for which the inhibition in test [1] amounted to 61%; in test [2], 82%. For the same compound, the half-inhibitory concentration (IC50) in test [4] was over 50 µM; in test [3], 10.8 µM.
Consider `Fc1cc(-c2nccc3c2[nH]c2ccccc23)ccc1Br`, for which the inhibition came to 71% in test [1] and 4% in test [2]. Also, the IC50 in test [4] amounted to 32.7 µM.
In the case of `c1ccc2c(c1)[nH]c1c(-c3cc[nH]n3)nccc12`, the inhibition in test [1] stood at 34%; in test [2] it was 7%.
In the case of `N#Cc1ccc(-c2nccc3c2[nH]c2ccccc23)cc1`, the figures for the inhibition in test [1] and in test [2] were 53% and 75%, respectively. Moreover, the half-inhibitory concentration (IC50) in test [4] was over 50 µM; in test [3] it was 12 µM.
As for `Oc1ccc(-c2nccc3c2[nH]c2ccccc23)cc1`, the inhibition was determined as 24% in test [1] and 4% in test [2].
With `Clc1cc(Cl)cc(-c2nccc3c2[nH]c2ccccc23)c1`, the inhibition worked out at 75% in test [1] and 8% in test [2]. In addition, the IC50 in test [4] worked out at 16.5 µM.
For `Fc1cccc(-c2nccc3c2[nH]c2ccccc23)c1`, the inhibition in test [1] was found to be 28%; in test [2], 86%. In addition, the IC50 in test [3] is 10.9 µM.
`c1ccc2c(c1)[nH]c1c(-c3cscn3)nccc12`: the values for the inhibition in test [1] and in test [2] were 3% and 4%, respectively.
Take `Clc1ccc(-c2nccc3c2[nH]c2ccccc23)cc1`: the inhibition in test [1] worked out at 86%; in test [2], 81%. The half-inhibitory concentration (IC50) came out at 7.58 µM in test [4] and 8.29 µM in test [3].
In the case of `Brc1cccc(-c2nccc3c2[nH]c2ccccc23)c1`, the inhibition in test [1] was 93%; in test [2], 65%. The IC50 in test [4] turned out to be 4.95 µM; in test [3], 20.3 µM.
As for `Clc1cccc(-c2nccc3c2[nH]c2ccccc23)c1`, the inhibition is 55% in test [1] and 88% in test [2]. Besides, the IC50 in test [4] is over 50 µM; in test [3], 13.4 µM.
Turning to `c1ccc2c(c1)[nH]c1c(-c3ccncc3)nccc12`, the inhibition came out at 46% in test [1] and 36% in test [2].
On to `c1ccc2c(c1)[nH]c1cnccc12` [NORHARMANE], for which the inhibition in test [1] is 48%; in test [2], 86%. Also, the IC50 in test [3] worked out at 1.2 µM.
For `c1ccc(-c2nccc3c2[nH]c2ccccc23)cc1`, in that order: 7%, 86% and 7.24 µM.
Consider `FC(F)(F)c1ccc(-c2nccc3c2[nH]c2ccccc23)cc1`, for which the inhibition in test [1] worked out at 13%; in test [2], 5%.
As for `O=C1CC(c2c[nH]c3ccc(F)cc23)C(=O)N1` (stereo unspecified), in test [1], the inhibition came out at 92%.
